# Experimental data from ChEMBL document CHEMBL4190370, “Emerging New Targets for the Treatment of Resistant Fungal Infections” (J Med Chem, 2018).
# Legend:
# [1] = Oral bioavailability in dog; format: ADME, organism-based, Canis lupus familiaris; conditions: in vivo
# [2] = Oral bioavailability in rat; format: ADME, organism-based; conditions: in vivo
# [3] = Oral bioavailability in rabbit; format: ADME, organism-based, Oryctolagus cuniculus; conditions: in vivo
# [4] = Half life in human; format: ADME, organism-based; conditions: in vivo
# [5] = Inhibition of Saccharomyces cerevisiae IleRS
# [6] = Inhibition of Saccharomyces cerevisiae LeuRs
# [7] = system: HepG2; assay: Cytotoxicity in human HepG2 cells; format: cell-based
# [8] = target: T1, Mediator of RNA polymerase II transcription subunit 15 (Candida glabrata (strain ATCC 2001 / CBS 138 / JCM 3761 / NBRC 0622 /NRRL Y-65) (Yeast) (Torulopsis glabrata), UniProt Q6FRS9); assay: Binding affinity to Candida glabrata Gal11A KIX domain; set-up: species or system Nakaseomyces glabratus
# T1 sequence (Q6FRS9 whole entry): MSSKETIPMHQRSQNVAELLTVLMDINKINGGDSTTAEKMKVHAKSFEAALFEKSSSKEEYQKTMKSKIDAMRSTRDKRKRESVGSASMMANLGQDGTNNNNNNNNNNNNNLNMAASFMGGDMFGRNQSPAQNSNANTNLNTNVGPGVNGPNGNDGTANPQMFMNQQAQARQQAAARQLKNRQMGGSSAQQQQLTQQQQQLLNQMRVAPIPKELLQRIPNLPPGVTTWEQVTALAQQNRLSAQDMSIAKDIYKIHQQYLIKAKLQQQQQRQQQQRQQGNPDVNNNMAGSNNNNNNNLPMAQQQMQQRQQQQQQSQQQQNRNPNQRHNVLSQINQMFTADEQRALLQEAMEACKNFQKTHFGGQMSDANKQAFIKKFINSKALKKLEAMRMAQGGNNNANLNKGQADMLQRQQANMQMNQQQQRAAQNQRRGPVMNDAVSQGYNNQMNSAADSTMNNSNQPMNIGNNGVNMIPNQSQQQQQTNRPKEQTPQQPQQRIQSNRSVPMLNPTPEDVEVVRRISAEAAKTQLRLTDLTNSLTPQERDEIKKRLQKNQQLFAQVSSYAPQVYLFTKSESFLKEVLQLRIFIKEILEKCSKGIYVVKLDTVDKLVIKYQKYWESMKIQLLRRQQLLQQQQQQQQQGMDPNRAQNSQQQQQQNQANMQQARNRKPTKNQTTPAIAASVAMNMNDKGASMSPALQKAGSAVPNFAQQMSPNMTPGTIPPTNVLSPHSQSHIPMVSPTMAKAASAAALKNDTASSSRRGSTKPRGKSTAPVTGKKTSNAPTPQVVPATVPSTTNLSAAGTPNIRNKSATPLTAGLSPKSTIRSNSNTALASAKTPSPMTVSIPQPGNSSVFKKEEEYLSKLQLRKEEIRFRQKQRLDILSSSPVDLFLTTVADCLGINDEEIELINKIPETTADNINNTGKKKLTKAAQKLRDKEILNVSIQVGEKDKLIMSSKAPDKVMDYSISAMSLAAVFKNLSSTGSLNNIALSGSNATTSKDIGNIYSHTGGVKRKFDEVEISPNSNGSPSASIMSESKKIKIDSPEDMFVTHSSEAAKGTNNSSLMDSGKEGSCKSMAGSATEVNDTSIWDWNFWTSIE
# [9] = system: Candida; assay: Antifungal activity against Candida; format: functional
# [10] = system: Candida; assay: Antifungal activity against Candida sp.; format: functional
compound,measurement,setting,value
C=C1C[C@H](N)[C@H](C(=O)O)C1 [ICOFUNGIPEN],bioavailability,[1],100%
same,bioavailability,[2],100%
same,bioavailability,[3],100%
same,half-life,[4],420 min
same,Ki,[5],1 mM
OB1OCc2cc(F)ccc21 [TAVABOROLE],IC50,[6],2100 nM
N#CCC(=O)NNC(=S)Nc1ccc(Cl)c(Cl)c1,IC50,[7],100 µM
same,Kd,[8],320 nM
CN(C)c1ccc(/C=C/c2cc(C(C)(C)C)[o+]c(C(C)(C)C)c2)cc1.[O-][Cl+3]([O-])([O-])[O-],MIC,[9],0.2 to 6.25 µg/mL
same,MIC,[10],0.5 to 1 µg/mL
